Data as given in patent publication US20090215889A1, “Novel Use of Zinc Gluconate for Treating Hydradenitis Suppurativa” (LABCATAL, priority 2005, published 2009).
Values joined by “and” are separate entries in the source; they are usually repeats but may differ in a detail not shown here. Equal values may be shown once.

Tests used:
[1] = system: suppurative hidradenitis; details: cited from earlier work
[2] = system: suppurative hidradenitis; experiment: clinical observation of oral zinc gluconate in 20 patients with suppurative hidradenitis; assay type: in vivo, human; parameters: key to Rep (response of the individual patient): CR: complete remission; PR: partial remission
Description: The efficacy of zinc gluconate in the treatment of suppurative hidradenitis was verified by the clinical observation performed on 20 patients, 16 of whom were monitored for a period of up to 24 months.
20 patients, 14 women and 6 men, from 23 to 72 years old, whose history of the disease ranged from 6 to 13 years, were placed on 90 mg of zinc gluconate per day for a period of a few months to 3 years.
In 34% of the cases, the location of the lesions was inguinal, axillary in 24% of the cases, and on the buttocks in 17% of the cases. The other affected regions in 5% to 7% of the cases were the chest, the pubis or the perineum.
“Dose 1” is the dose administered at the start of the treatment. “Dose 2” is the maintenance dose. The medical monitoring was generally from 4 to 8 months, and in a few cases it was extended beyond 12 months.

[3] = tolerance to oral zinc gluconate doses; assay type: in vivo, human; details: for example 90 mg/day
[4] = Vidal monograph, overdose section; cited from earlier work
[5] = system: suppurative hidradenitis; details: oral; open study on 80 patients; cited from earlier work
[6] = of 20 patients, 90 mg zinc gluconate per day, monitoring for several months

CC(=O)O[C@]1(C(C)=O)CC[C@H]2[C@@H]3C=C(Cl)C4=CC(=O)[C@@H]5C[C@@H]5[C@]4(C)[C@H]3CC[C@@]21C [cyproterone acetate]
efficacy ([1]; 100 mg/day of cyproterone acetate, small number of patients): efficacy only at large doses | outcome on dose reduction ([1]; dose reduced to 50 mg): recurrence

zinc gluconate
patients for whom the treatment proved to be ineffective ([2]; of 20 patients, 90 mg zinc gluconate per day): one | patients showing a full remission of the disease [2, 6]: 9 patients | patients showing a full remission of the disease (percentage) [2, 6]: 45% | patients showing a partial remission [2, 6]: 6 patients | patients showing a partial remission (percentage) [2, 6]: 30% | efficacy in the treatment of suppurative hidradenitis ([2]; oral, 60 to 120 mg per day attack treatment, 15 to 90 mg per day maintenance treatment): satisfactory efficacy | Rep (response of the individual patient) ([2]; patient (No. 1-20), oral, Dose 1 60-120 mg/day at start, Dose 2 maintenance, monitoring 3 to >12 months): PR (6×) and CR (9×) and ineff. | observed side effects [3]: only digestive | systemic toxicity [3]: no systemic toxicity to be feared | tolerance ([3]; i.e. 6 gel capsules containing a 15 mg dose): usually good | probability of an acute intoxication [4]: zero

CC1=C(/C=C/C(C)=C/C=C/C(C)=C\C(=O)O)C(C)(C)CCC1 [isotretinoin]
results of treatment [5]: very mediocre results
